From ChEMBL document CHEMBL3870316, “Design, synthesis and structure-activity relationships of novel 4-phenoxyquinoline derivatives containing 1,2,4-triazolone moiety as c-Met kinase inhibitors” (Eur J Med Chem, 2016) come the findings set out here.

The first test in a line: Cytotoxicity against c-Met over-expressed human HT-29 cells assessed as cell growth inhibition after 72 hrs by MTT assay. As to conditions: HT-29, 72 h. A general note: Formazan colour is commonly taken as a measure of viable cells.
In general, IC50 refers to the concentration at which inhibition is half-maximal. Turning to `COc1cc2c(Oc3ccc(NC(=O)c4nn(-c5ccc(Cl)cc5Cl)c(=O)n4C)cc3F)ccnc2cc1OCCCN1CCCCC1`, the IC50 is 340 nM.
Take `CCn1c(C(=O)Nc2ccc(Oc3ccnc4cc(OCCCN5CCCCC5)c(OC)cc34)c(F)c2)nn(-c2ccccc2OC(F)(F)F)c1=O`: the IC50 came out at 190 nM.
Regarding `CCn1c(C(=O)Nc2ccc(Oc3ccnc4cc(OCCCN5CCC(C)CC5)c(OC)cc34)c(F)c2)nn(-c2ccccc2OC(F)(F)F)c1=O`, the IC50 stood at 160 nM.
For `COc1cc2c(Oc3ccc(NC(=O)c4nn(-c5ccc(OC(F)F)cc5)c(=O)n4C)cc3F)ccnc2cc1OCCCN1CCN(C)CC1`, the IC50 was determined as 220 nM.
As for `COc1cc2c(Oc3ccc(NC(=O)c4nn(-c5ccccc5OC(F)(F)F)c(=O)n4C)cc3F)ccnc2cc1OCCCN1CCC(C)CC1`, the IC50 amounted to 190 nM.
On the same count and under the same terms, the value for `COc1cc2c(Oc3ccc(NC(=O)c4nn(-c5ccc(F)cc5)c(=O)n4C)cc3F)ccnc2cc1OCCCN1CCC(C)CC1` was 330 nM.
As to `COc1cc2c(Oc3ccc(NC(=O)c4nn(-c5ccccc5)c(=O)n4C)cc3F)ccnc2cc1OCCCN1CCN(C)CC1`, the IC50 stood at 650 nM.
For the compound `COc1cc2c(Oc3ccc(NC(=O)c4nn(-c5ccc(F)cc5)c(=O)n4C)cc3F)ccnc2cc1OCCCN1CCOCC1`, the IC50 was 1230 nM.
In the case of `COc1cc2c(Oc3ccc(NC(=O)c4nn(-c5ccc(F)cc5)c(=O)n4C)cc3F)ccnc2cc1OCCCN1CCN(C)CC1`, the IC50 came out at 250 nM.
Same read-out and setting: the value for `COc1cc2c(Oc3ccc(NC(=O)c4nn(-c5ccccc5Cl)c(=O)n4C4CC4)cc3F)ccnc2cc1OCCCN1CCN(C)CC1` was 190 nM; that for `COc1cc2c(Oc3ccc(NC(=O)c4nn(-c5ccc(F)cc5)c(=O)n4C)cc3F)ccnc2cc1OCCCN1CCCCC1` was 400 nM; that for `COc1cc2c(Oc3ccc(NC(=O)c4nn(-c5ccc(Cl)cc5Cl)c(=O)n4C)cc3F)ccnc2cc1OCCCN1CCN(C)CC1` was 300 nM.
The same measure, in the same setting: the same measure for `COc1cc2c(Oc3ccc(NC(=O)c4nn(-c5ccccc5)c(=O)n4C)cc3F)ccnc2cc1OCCCN1CCCC1`: 1450 nM; for `COc1cc2c(Oc3ccc(NC(=O)c4nn(-c5ccccc5Cl)c(=O)n4C)cc3F)ccnc2cc1OCCCN1CCCCC1`: 180 nM.
`COc1cc2c(Oc3ccc(NC(=O)c4nn(-c5ccccc5Cl)c(=O)n4C)cc3F)ccnc2cc1OCCCN1CCC(C)CC1`: the half-maximal inhibitory concentration (IC50) stood at 150 nM.

A short description of the next test: Cytotoxicity against c-Met over-expressed human H460 cells assessed as cell growth inhibition after 72 hrs by MTT assay. Conditions: NCI-H460, 72 h.
In the case of `COc1cc2c(Oc3ccc(NC(=O)c4nn(-c5ccc(Cl)cc5Cl)c(=O)n4C)cc3F)ccnc2cc1OCCCN1CCCCC1`, the IC50 amounted to 380 nM.
In the case of `CCn1c(C(=O)Nc2ccc(Oc3ccnc4cc(OCCCN5CCCCC5)c(OC)cc34)c(F)c2)nn(-c2ccccc2OC(F)(F)F)c1=O`, the IC50 stood at 250 nM.
For `CCn1c(C(=O)Nc2ccc(Oc3ccnc4cc(OCCCN5CCC(C)CC5)c(OC)cc34)c(F)c2)nn(-c2ccccc2OC(F)(F)F)c1=O`, the IC50 came out at 200 nM.
Consider `COc1cc2c(Oc3ccc(NC(=O)c4nn(-c5ccc(OC(F)F)cc5)c(=O)n4C)cc3F)ccnc2cc1OCCCN1CCN(C)CC1`, for which the IC50 was 290 nM.
Consider `COc1cc2c(Oc3ccc(NC(=O)c4nn(-c5ccccc5OC(F)(F)F)c(=O)n4C)cc3F)ccnc2cc1OCCCN1CCC(C)CC1`, for which the half-inhibitory concentration (IC50) is 350 nM.
In the case of `COc1cc2c(Oc3ccc(NC(=O)c4nn(-c5ccc(F)cc5)c(=O)n4C)cc3F)ccnc2cc1OCCCN1CCC(C)CC1`, the concentration for half-maximal inhibition (IC50) amounted to 240 nM.
For `COc1cc2c(Oc3ccc(NC(=O)c4nn(-c5ccccc5)c(=O)n4C)cc3F)ccnc2cc1OCCCN1CCN(C)CC1`, the concentration for half-maximal inhibition (IC50) is 620 nM.
As for `COc1cc2c(Oc3ccc(NC(=O)c4nn(-c5ccc(F)cc5)c(=O)n4C)cc3F)ccnc2cc1OCCCN1CCOCC1`, the IC50 came to 810 nM.
As for `COc1cc2c(Oc3ccc(NC(=O)c4nn(-c5ccc(F)cc5)c(=O)n4C)cc3F)ccnc2cc1OCCCN1CCN(C)CC1`, the half-inhibitory concentration (IC50) is 370 nM.
On the same count and under the same terms, the value for `COc1cc2c(Oc3ccc(NC(=O)c4nn(-c5ccccc5Cl)c(=O)n4C4CC4)cc3F)ccnc2cc1OCCCN1CCN(C)CC1` was 230 nM; that for `COc1cc2c(Oc3ccc(NC(=O)c4nn(-c5ccc(F)cc5)c(=O)n4C)cc3F)ccnc2cc1OCCCN1CCCCC1` was 580 nM; that for `COc1cc2c(Oc3ccc(NC(=O)c4nn(-c5ccc(Cl)cc5Cl)c(=O)n4C)cc3F)ccnc2cc1OCCCN1CCN(C)CC1` was 240 nM.
With `COc1cc2c(Oc3ccc(NC(=O)c4nn(-c5ccccc5)c(=O)n4C)cc3F)ccnc2cc1OCCCN1CCCC1`, the IC50 came to 1300 nM.
Take `COc1cc2c(Oc3ccc(NC(=O)c4nn(-c5ccccc5Cl)c(=O)n4C)cc3F)ccnc2cc1OCCCN1CCCCC1`: the IC50 was found to be 300 nM.
In the case of `COc1cc2c(Oc3ccc(NC(=O)c4nn(-c5ccccc5Cl)c(=O)n4C)cc3F)ccnc2cc1OCCCN1CCC(C)CC1`, the IC50 worked out at 200 nM.

The nature of a further test: Cytotoxicity against c-Met over-expressed human A549 cells assessed as cell growth inhibition after 72 hrs by MTT assay. Conditions: A549, 72 h.
On to `COc1cc2c(Oc3ccc(NC(=O)c4nn(-c5ccc(Cl)cc5Cl)c(=O)n4C)cc3F)ccnc2cc1OCCCN1CCCCC1`, for which the IC50 was 320 nM.
Regarding `CCn1c(C(=O)Nc2ccc(Oc3ccnc4cc(OCCCN5CCCCC5)c(OC)cc34)c(F)c2)nn(-c2ccccc2OC(F)(F)F)c1=O`, the IC50 stood at 190 nM.
`CCn1c(C(=O)Nc2ccc(Oc3ccnc4cc(OCCCN5CCC(C)CC5)c(OC)cc34)c(F)c2)nn(-c2ccccc2OC(F)(F)F)c1=O`: the IC50 worked out at 220 nM.
With `COc1cc2c(Oc3ccc(NC(=O)c4nn(-c5ccc(OC(F)F)cc5)c(=O)n4C)cc3F)ccnc2cc1OCCCN1CCN(C)CC1`, the concentration for half-maximal inhibition (IC50) turned out to be 290 nM.
Take `COc1cc2c(Oc3ccc(NC(=O)c4nn(-c5ccccc5OC(F)(F)F)c(=O)n4C)cc3F)ccnc2cc1OCCCN1CCC(C)CC1`: the IC50 was 180 nM.
Take `COc1cc2c(Oc3ccc(NC(=O)c4nn(-c5ccc(F)cc5)c(=O)n4C)cc3F)ccnc2cc1OCCCN1CCC(C)CC1`: the IC50 was found to be 410 nM.
Same read-out and setting: the value for `COc1cc2c(Oc3ccc(NC(=O)c4nn(-c5ccccc5)c(=O)n4C)cc3F)ccnc2cc1OCCCN1CCN(C)CC1` was 460 nM; that for `COc1cc2c(Oc3ccc(NC(=O)c4nn(-c5ccc(F)cc5)c(=O)n4C)cc3F)ccnc2cc1OCCCN1CCOCC1` was 400 nM; that for `COc1cc2c(Oc3ccc(NC(=O)c4nn(-c5ccc(F)cc5)c(=O)n4C)cc3F)ccnc2cc1OCCCN1CCN(C)CC1` was 240 nM.
On to `COc1cc2c(Oc3ccc(NC(=O)c4nn(-c5ccccc5Cl)c(=O)n4C4CC4)cc3F)ccnc2cc1OCCCN1CCN(C)CC1`, for which the IC50 was 130 nM.
Regarding `COc1cc2c(Oc3ccc(NC(=O)c4nn(-c5ccc(F)cc5)c(=O)n4C)cc3F)ccnc2cc1OCCCN1CCCCC1`, the IC50 stood at 350 nM.
Consider `COc1cc2c(Oc3ccc(NC(=O)c4nn(-c5ccc(Cl)cc5Cl)c(=O)n4C)cc3F)ccnc2cc1OCCCN1CCN(C)CC1`, for which the IC50 turned out to be 250 nM.
In the case of `COc1cc2c(Oc3ccc(NC(=O)c4nn(-c5ccccc5)c(=O)n4C)cc3F)ccnc2cc1OCCCN1CCCC1`, the IC50 stood at 990 nM.
On to `COc1cc2c(Oc3ccc(NC(=O)c4nn(-c5ccccc5Cl)c(=O)n4C)cc3F)ccnc2cc1OCCCN1CCCCC1`, for which the IC50 worked out at 190 nM.
In the case of `COc1cc2c(Oc3ccc(NC(=O)c4nn(-c5ccccc5Cl)c(=O)n4C)cc3F)ccnc2cc1OCCCN1CCC(C)CC1`, the IC50 is 240 nM.

Another test is described as follows: Cytotoxicity against c-Met over-expressed human MKN45 cells assessed as cell growth inhibition after 72 hrs by MTT assay. As to conditions: MKN-45, 72 h.
Regarding `COc1cc2c(Oc3ccc(NC(=O)c4nn(-c5ccc(Cl)cc5Cl)c(=O)n4C)cc3F)ccnc2cc1OCCCN1CCCCC1`, the IC50 turned out to be 290 nM.
Take `CCn1c(C(=O)Nc2ccc(Oc3ccnc4cc(OCCCN5CCCCC5)c(OC)cc34)c(F)c2)nn(-c2ccccc2OC(F)(F)F)c1=O`: the 50% inhibitory concentration (IC50) amounted to 120 nM.
Take `CCn1c(C(=O)Nc2ccc(Oc3ccnc4cc(OCCCN5CCC(C)CC5)c(OC)cc34)c(F)c2)nn(-c2ccccc2OC(F)(F)F)c1=O`: the IC50 turned out to be 87 nM.
Consider `COc1cc2c(Oc3ccc(NC(=O)c4nn(-c5ccc(OC(F)F)cc5)c(=O)n4C)cc3F)ccnc2cc1OCCCN1CCN(C)CC1`, for which the IC50 is 140 nM.
For the compound `COc1cc2c(Oc3ccc(NC(=O)c4nn(-c5ccccc5OC(F)(F)F)c(=O)n4C)cc3F)ccnc2cc1OCCCN1CCC(C)CC1`, the IC50 worked out at 95 nM.
Same read-out and setting: the value for `COc1cc2c(Oc3ccc(NC(=O)c4nn(-c5ccc(F)cc5)c(=O)n4C)cc3F)ccnc2cc1OCCCN1CCC(C)CC1` was 310 nM; that for `COc1cc2c(Oc3ccc(NC(=O)c4nn(-c5ccccc5)c(=O)n4C)cc3F)ccnc2cc1OCCCN1CCN(C)CC1` was 560 nM.
Regarding `COc1cc2c(Oc3ccc(NC(=O)c4nn(-c5ccc(F)cc5)c(=O)n4C)cc3F)ccnc2cc1OCCCN1CCOCC1`, the IC50 is 640 nM.
Take `COc1cc2c(Oc3ccc(NC(=O)c4nn(-c5ccc(F)cc5)c(=O)n4C)cc3F)ccnc2cc1OCCCN1CCN(C)CC1`: the IC50 turned out to be 350 nM.
Take `COc1cc2c(Oc3ccc(NC(=O)c4nn(-c5ccccc5Cl)c(=O)n4C4CC4)cc3F)ccnc2cc1OCCCN1CCN(C)CC1`: the half-maximal inhibitory concentration (IC50) came out at 63 nM.
Turning to `COc1cc2c(Oc3ccc(NC(=O)c4nn(-c5ccc(F)cc5)c(=O)n4C)cc3F)ccnc2cc1OCCCN1CCCCC1`, the IC50 was determined as 400 nM.
For `COc1cc2c(Oc3ccc(NC(=O)c4nn(-c5ccc(Cl)cc5Cl)c(=O)n4C)cc3F)ccnc2cc1OCCCN1CCN(C)CC1`, the IC50 is 180 nM.
Regarding `COc1cc2c(Oc3ccc(NC(=O)c4nn(-c5ccccc5)c(=O)n4C)cc3F)ccnc2cc1OCCCN1CCCC1`, the IC50 stood at 1160 nM.
Regarding `COc1cc2c(Oc3ccc(NC(=O)c4nn(-c5ccccc5Cl)c(=O)n4C)cc3F)ccnc2cc1OCCCN1CCCCC1`, the IC50 came out at 220 nM.
With `COc1cc2c(Oc3ccc(NC(=O)c4nn(-c5ccccc5Cl)c(=O)n4C)cc3F)ccnc2cc1OCCCN1CCC(C)CC1`, the IC50 came out at 350 nM.
